Test results taken from ChEMBL document CHEMBL3612024, “Synthesis of five and six-membered heterocycles bearing an arylpiperazinylalkyl side chain as orally active antinociceptive agents” (2015).
Active and inactive are the calls of the source. The rule behind the calls is not given here.

Tests used:
Conditions in all cases: Abdomen
[1] = system: Mus musculus; assay: Antinociceptive activity in Swiss albino mouse assessed as inhibition of acetic acid-induced abdominal constriction at 20 mg/kg, po administered 30 mins prior to testing measured for 10 mins starting 5 mins after acetic acid injection relative to control; format: functional
[2] = system: Mus musculus; assay: Antinociceptive activity in Swiss albino mouse assessed as inhibition of acetic acid-induced abdominal constriction at 10 mg/kg, po administered 30 mins prior to testing measured for 10 mins starting 5 mins after acetic acid injection relative to control; format: functional
[3] = system: Mus musculus; assay: Antinociceptive activity in Swiss albino mouse assessed as inhibition of acetic acid-induced abdominal constriction at 40 mg/kg, po administered 30 mins prior to testing measured for 10 mins starting 5 mins after acetic acid injection in presence of alpha-2 adrenergic receptor antagonist yohimbine; format: functional, organism-based
[4] = system: Mus musculus; assay: Antinociceptive activity in Swiss albino mouse assessed as inhibition of acetic acid-induced abdominal constriction at 40 mg/kg, po administered 30 mins prior to testing measured for 10 mins starting 5 mins after acetic acid injection relative to control; format: functional
[5] = system: Mus musculus; assay: Antinociceptive activity in Swiss albino mouse assessed as inhibition of acetic acid-induced abdominal constriction at 20 mg/kg, po administered 30 mins prior to testing measured for 10 mins starting 5 mins after acetic acid injection in presence of alpha-2 adrenergic receptor antagonist yohimbine; format: functional, organism-based
[6] = system: Mus musculus; assay: Antinociceptive activity in Swiss albino mouse assessed as inhibition of acetic acid-induced abdominal constriction at 30 mg/kg, po administered 30 mins prior to testing measured for 10 mins starting 5 mins after acetic acid injection in presence of alpha-2 adrenergic receptor antagonist yohimbine; format: functional, organism-based
[7] = system: Mus musculus; assay: Antinociceptive activity in Swiss albino mouse assessed as inhibition of acetic acid-induced abdominal constriction at 30 mg/kg, po administered 30 mins prior to testing measured for 10 mins starting 5 mins after acetic acid injection relative to control; format: functional
[8] = system: Mus musculus; assay: Antinociceptive activity in Swiss albino mouse assessed as inhibition of acetic acid-induced abdominal constriction at 80 mg/kg, po administered 30 mins prior to testing measured for 10 mins starting 5 mins after acetic acid injection relative to control; format: functional

Row | Structure (SMILES) | inhibition in vivo at 20 mg/kg [1] [%] | inhibition in vivo at 10 mg/kg [2] [%] | inhibition [3] | inhibition in vivo at 40 mg/kg [4] [%] | inhibition [5] | inhibition [6] | inhibition in vivo at 30 mg/kg [7] [%] | inhibition in vivo at 80 mg/kg [8] [%] | inhibition [7] | inhibition [2]
1 | O=c1occ(-c2ccccc2)n1CCCN1CCN(c2ccc(F)cc2)CC1 | 12 | 14 | inactive | 34 |  |  |  |  |  | 
2 | Cc1c(C#N)c(-c2ccccc2)nn1CCCN1CCN(c2ccc(F)cc2)CC1 | 28 | 9 | inactive | 51 |  |  |  |  |  | 
3 | O=c1occ(-c2ccccc2)n1CCCN1CCN(c2cccc(Cl)c2)CC1 | 31 | 7 |  | 38 | inactive |  |  |  |  | 
4 | COc1cccc(N2CCN(CCCn3nc(-c4ccccc4)c(C#N)c3C)CC2)c1 | 21 | 0 |  | 34 | inactive |  |  |  |  | 
5 | C=Cc1c(C)nn(CC(C)CN2CCN(c3ccc(C)cc3)CC2)c(=O)c1N (configuration not stated) |  | 17 |  |  |  | inactive | 47 |  |  | 
6 | CCc1c(C)nn(CCCN2CCN(c3ccc(C)cc3)CC2)c(=O)c1N |  | 23 |  |  |  | inactive | 45 |  |  | 
7 | CCC/C=C/c1c(C)nn(CCCN2CCN(c3ccc(C)cc3)CC2)c(=O)c1N | 16 | 0 | inactive | 36 |  |  |  |  |  | 
8 | COc1cccc(N2CCN(CCCn3c(-c4ccccc4)coc3=O)CC2)c1 | 25 | 8 |  | 39 | inactive |  |  |  |  | 
9 | C=Cc1c(C)nn(CCCN2CCN(c3ccc(F)cc3)CC2)c(=O)c1N |  | 0 |  |  |  | inactive | 28 |  |  | 
10 | COc1cccc(N2CCN(CCCn3cccc3C(C)=O)CC2)c1 | 26 | 0 | inactive | 52 |  |  |  |  |  | 
11 | C=Cc1c(CCCC)nn(CCCN2CCN(c3ccc(C)cc3)CC2)c(=O)c1N | 41 | 0 |  | 48 | inactive |  |  |  |  | 
12 | C=Cc1c(C)nn(CCCN2CCCN(c3ccc(C)cc3)CC2)c(=O)c1N | 10 | 0 | inactive | 31 |  |  |  |  |  | 
13 | CC(=O)c1cccn1CCCN1CCN(c2cccc(Cl)c2)CC1 | 41 | 3 |  | 54 | inactive |  |  |  |  | 
14 | CCCC(=O)c1c(C)nn(CCCN2CCN(c3ccc(C)cc3)CC2)c(=O)c1N | 25 | 0 |  | 32 | inactive |  |  |  |  | 
15 | CC(=O)c1cccn1CCCN1CCN(c2ccc([N+](=O)[O-])cc2)CC1 | 11 |  |  | 0 |  |  |  | 9 |  | 
16 | C=Cc1c(CC)nn(CCCN2CCN(c3ccc(C)cc3)CC2)c(=O)c1N | 0 | 0 | inactive | 28 |  |  |  |  |  | 

Row | Structure (SMILES) | inhibition in vivo at 20 mg/kg [1] [%] | inhibition in vivo at 10 mg/kg [2] [%] | inhibition [3] | inhibition in vivo at 40 mg/kg [4] [%] | inhibition [5] | inhibition [6] | inhibition in vivo at 30 mg/kg [7] [%] | inhibition in vivo at 80 mg/kg [8] [%] | inhibition [7] | inhibition [2]
17 | Cc1ccc(N2CCN(CCCn3nc(-c4ccccc4)c(C#N)c3C)CC2)cc1 | 8 | 0 |  | 30 | inactive |  |  |  |  | 
18 | CCc1nn(CCCN2CCN(c3ccc(C)cc3)CC2)c(=O)c(N)c1C(C)=O | 42 | 10 |  | 41 | inactive |  |  |  |  | 
19 | C=Cc1c(C)nn(CCCCN2CCN(c3ccc(C)cc3)CC2)c(=O)c1N |  | 3 |  |  |  | inactive | 42 |  |  | 
20 | C=Cc1c(CCC)nn(CCCN2CCN(c3ccc(C)cc3)CC2)c(=O)c1N | 7 | 3 | inactive | 22 |  |  |  |  |  | 
21 | C=Cc1c(C)nn(CCCN2CCN(C(=O)c3ccc(Cl)c(F)c3)CC2)c(=O)c1N |  |  |  |  |  |  |  |  | inactive | inactive
22 | CC(=O)c1cccn1CCCN1CCN(c2ccc(F)cc2)CC1 | 16 | 0 | inactive | 38 |  |  |  |  |  | 
23 | CCC(=O)c1c(C)nn(CCCN2CCN(c3ccc(C)cc3)CC2)c(=O)c1N | 40 | 9 |  | 29 | inactive |  |  |  |  | 
24 | C=Cc1c(C)nn(CCCCN2CCN(c3ccccc3OCC)CC2)c(=O)c1N |  |  |  |  |  |  |  |  | inactive | inactive
25 | Cc1c(C#N)c(-c2ccccc2)nn1CCCN1CCN(c2cccc(Cl)c2)CC1 | 0 |  | inactive | 23 |  |  |  |  |  | 
26 | CC(=O)c1c(C)nn(CCCN2CCN(c3ccc(C)cc3)CC2)c(=O)c1N |  | 19 |  |  |  | inactive | 46 |  |  | 
27 | C=Cc1c(C)nn(CCCN2CCN(c3ccc(C)cc3)CC2)c(=O)c1N |  | 33 | inactive | 65 |  |  | 59 |  |  | 
28 | CC(=O)c1cccn1CCCN1CCN(c2ccc(C)cc2)CC1 | 7 | 12 |  | 9 |  |  |  | 4 |  | 
29 | CCCCC(=O)c1c(C)nn(CCCN2CCN(c3ccc(C)cc3)CC2)c(=O)c1N | 23 | 8 |  | 15 | inactive |  |  |  |  | 
30 | Cc1c(C#N)c(-c2ccccc2)nn1CCCN1CCN(c2ccc([N+](=O)[O-])cc2)CC1 | 21 | 0 | inactive | 49 |  |  |  |  |  | 
31 | CC/C=C/c1c(C)nn(CCCN2CCN(c3ccc(C)cc3)CC2)c(=O)c1N | 35 | 5 |  | 45 | inactive |  |  |  |  | 
32 | C/C=C/c1c(C)nn(CCCN2CCN(c3ccc(C)cc3)CC2)c(=O)c1N | 44 | 0 |  | 63 | inactive |  |  |  |  | 
